Experimental findings from patent US11572590B2, “Methods for evaluating tumor cell spheroids using 3D microfluidic cell culture device” (Dana-Farber Cancer Institute, Inc., priority 2017, dated 2023) are described below.

pIC50: −log10 of the molar value. Read-outs that look alike come from different tables or passages of the source.

One experiment deals with T1, off-target kinases (Homo sapiens, UniProt O43318).
T1 sequence (O43318 1-606): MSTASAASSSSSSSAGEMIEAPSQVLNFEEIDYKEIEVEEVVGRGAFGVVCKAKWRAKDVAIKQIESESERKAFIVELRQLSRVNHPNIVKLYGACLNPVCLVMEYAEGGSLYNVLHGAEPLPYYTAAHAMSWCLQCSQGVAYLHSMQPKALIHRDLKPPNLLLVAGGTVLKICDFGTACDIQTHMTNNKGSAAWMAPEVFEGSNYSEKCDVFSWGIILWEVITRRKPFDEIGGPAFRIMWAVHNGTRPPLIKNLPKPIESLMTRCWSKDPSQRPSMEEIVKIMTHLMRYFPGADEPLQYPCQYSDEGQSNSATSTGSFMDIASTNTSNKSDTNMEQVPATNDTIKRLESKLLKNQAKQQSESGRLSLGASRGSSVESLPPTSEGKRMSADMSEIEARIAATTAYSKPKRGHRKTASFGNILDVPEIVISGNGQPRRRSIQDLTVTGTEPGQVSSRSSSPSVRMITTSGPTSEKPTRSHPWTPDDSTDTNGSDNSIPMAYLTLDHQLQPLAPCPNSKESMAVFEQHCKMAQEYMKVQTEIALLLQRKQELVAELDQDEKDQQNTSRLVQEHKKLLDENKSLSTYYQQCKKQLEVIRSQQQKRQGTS
Description: SelectScreen Kinase Profiling, single point inhibition and IC50 for off-target kinases. It counts as biochemical. Further details: other: MAP3K7/MAP3K7IP1 (TAK1-TAB1); 1000 μM; fused on or other part: TAB1 (MAP3K7IP1, Q15750), either fused to TAK1 or present as a separate partner chain. Particulars: MAP3K7/MAP3K7IP1 (TAK1-TAB1); LanthaScreen Binding; 1000 μM. Here is the method:
Biochemical single point inhibition and IC50 concentrations for TBK1, IKKε (IKBKE), and off-target kinases were determined at ThermoFisher Scientific using SelectScreen Kinase Profiling Services (Madison, Wis., USA) (Tables S4A and S4B-1-7). To determine cellular potency, the human colorectal cancer carcinoma cell line HCT116 (ATCC, Manassas, Va.) was maintained in T175 flasks in complete RPMI medium; RPMI 1640 supplemented with 10% FBS, 1× Penicillin-Streptomycin solution and 1×MEM (non-essential amino acids). HCT116 cells were grown to 90-95% confluency in T175 flasks containing complete RPMI medium and transfected in bulk using Lipofectamine 2000 (Invitrogen, Carlsbad, Calif.) with 70 μg of ISG54-luciferase reporter plasmid (Elim Biopharmaceuticals Inc., Hayward, Calif.). The reporter plasmid contains a luciferase gene expression cassette under the transcriptional regulation of the promoter of the human interferon stimulated gene 54 (ISG54). […] The assay plates were incubated for 5 hours at 37° C., followed by addition of One-Glo luciferase firefly reagent (Promega, Madison, Wis.) at 1:1 volume/well and luminescence was measured in an EnVision Multilabel Plate Reader (PerkinElmer, Santa Clara, Calif.). The EC50 values were calculated from the fit of the dose-response curves to a four-parameter equation. […]
(In general: In TR-FRET formats the signal depends on donor and acceptor labels being close together.)

A further experiment has as its system MB49 allograft. Description: MB49 allograft, Compound 1 and anti-PD-L1 combination in vivo. Further details: species or system mouse. Particulars: Cmpd1 + αPD-L1.
The next experiment concerns the target T2, IKKε (IKBKE) (Homo sapiens, UniProt Q14164).
T2 sequence (Q14164 1-716): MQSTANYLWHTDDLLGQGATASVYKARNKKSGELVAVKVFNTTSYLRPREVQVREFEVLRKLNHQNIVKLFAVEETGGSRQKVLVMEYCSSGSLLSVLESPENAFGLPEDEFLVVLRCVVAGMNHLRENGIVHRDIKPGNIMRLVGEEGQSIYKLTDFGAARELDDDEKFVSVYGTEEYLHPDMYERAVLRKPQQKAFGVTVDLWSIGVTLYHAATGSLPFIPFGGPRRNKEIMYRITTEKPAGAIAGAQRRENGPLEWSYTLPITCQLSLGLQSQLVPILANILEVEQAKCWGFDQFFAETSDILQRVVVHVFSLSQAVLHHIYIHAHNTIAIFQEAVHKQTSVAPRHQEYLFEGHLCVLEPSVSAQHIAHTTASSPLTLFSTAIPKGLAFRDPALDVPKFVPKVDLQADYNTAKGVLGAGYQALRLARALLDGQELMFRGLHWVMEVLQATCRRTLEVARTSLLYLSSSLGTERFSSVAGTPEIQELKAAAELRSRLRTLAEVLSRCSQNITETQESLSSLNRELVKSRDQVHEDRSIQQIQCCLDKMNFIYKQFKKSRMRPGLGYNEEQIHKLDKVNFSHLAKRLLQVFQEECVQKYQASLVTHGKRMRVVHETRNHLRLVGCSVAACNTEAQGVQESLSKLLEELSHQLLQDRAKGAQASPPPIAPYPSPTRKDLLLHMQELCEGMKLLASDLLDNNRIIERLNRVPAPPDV
The experiment can be described thus: SelectScreen Kinase Profiling, IC50 for IKKε (IKBKE). It counts as biochemical. Particulars: ATP Km app, ZLYTE; for inhibition: IKBKE (IKK epsilon). Here is the method:
Biochemical single point inhibition and IC50 concentrations for TBK1, IKKε (IKBKE), and off-target kinases were determined at ThermoFisher Scientific using SelectScreen Kinase Profiling Services (Madison, Wis., USA) (Tables S4A and S4B-1-7). To determine cellular potency, the human colorectal cancer carcinoma cell line HCT116 (ATCC, Manassas, Va.) was maintained in T175 flasks in complete RPMI medium; RPMI 1640 supplemented with 10% FBS, 1× Penicillin-Streptomycin solution and 1×MEM (non-essential amino acids). HCT116 cells were grown to 90-95% confluency in T175 flasks containing complete RPMI medium and transfected in bulk using Lipofectamine 2000 (Invitrogen, Carlsbad, Calif.) with 70 μg of ISG54-luciferase reporter plasmid (Elim Biopharmaceuticals Inc., Hayward, Calif.). The reporter plasmid contains a luciferase gene expression cassette under the transcriptional regulation of the promoter of the human interferon stimulated gene 54 (ISG54). Transfection of the cells was allowed to take place for 6 hours, after which the cells were harvested by treatment with 0.25% trypsin EDTA (Corning Inc., Corning, N.Y.). Trypsinized cells were added to 384-well poly-d-lysine treated black clear bottom tissue culture assay plates (Greiner Bio-One GmbH, Kremsmünster, Austria) at a density of 20,000 cells/well in 80 μL of complete RPMI medium and incubated overnight. After 16-18 hours post-transfection, the assay plates were washed with PBS (Corning Inc., Corning, N.Y.), followed by addition of 80 μL/well of serum-free RPMI 1640 medium containing 1× Penicillin-Streptomycin solution, 1×MEM and 350 nL of DMSO or titrations of Compound 1. Compound 1 titrations were generated by 1.5-fold dilution steps in two overlapping serial dilution series to generate a 40-point compound dose range. After incubation at 37° C. for 1 hour, the cells were stimulated with Poly(I:C) (InvivoGen, San Diego, Calif.) at a final concentration of 15 μg/mL in Optimem media (Life Technologies, Rockville, Md.). The assay plates were incubated for 5 hours at 37° C., followed by addition of One-Glo luciferase firefly reagent (Promega, Madison, Wis.) at 1:1 volume/well and luminescence was measured in an EnVision Multilabel Plate Reader (PerkinElmer, Santa Clara, Calif.). The EC50 values were calculated from the fit of the dose-response curves to a four-parameter equation. All EC50 values represent geometric mean values of a minimum of four determinations.

As for `N#Cc1cc(-c2ncnc(Nc3ccc(N4CCN(C5COC5)CC4)cc3)n2)ccc1OC1CCOCC1` [Compound 1, 5-(4-((4-(4-(oxetan-3-yl)piperazin-1-yl)phenyl)amino)-1,3,5-triazin-2-yl)-2-((tetrahydro-2H-pyran-4-yl)oxy)benzonitrile], on off-target kinases, the “% Inhibition 1” value is on record as 22%. The “response to combination treatment in vivo, MB49 bladder carcinoma model” value with MB49 allograft is reported as “enhanced response”. Moreover, the results for the inhibition at IKKε (IKBKE) (read-out: % Inhibition 1), at IKKε (IKBKE) (read-out: % Inhibition 2) and on IKKε (IKBKE) (read-out: % Inhibition Avg) were 106%, 103% and 105%, respectively. The Hillslope at IKKε (IKBKE) is given as 1.06. Further, the negative logarithm of the IC50 (pIC50) – broadly, −log10 of the IC50, conventionally taken in molar units – at IKKε (IKBKE) is 8.25. On IKKε (IKBKE) (IC50 relative to IKBKE IC50), the “fold selectivity (IKBKE)” value was found to be 1.0 fold. The “fold selectivity (TBK1)” value on IKKε (IKBKE) (IC50 relative to TBK1 IC50) is 5.4 fold.
